In US12679878B2, “CRF2 receptor agonists and their use in therapy” (SANOFI, priority 2020, dated 2026):
Converted amounts (≈) assume the structure as drawn. Where two headings read alike, the source gives them in different places. Starred links: 1 amine or outer side, 2 acyl side, 3 side chain; linkers in the order of their positions; H or OH if unused. Residues, ends and D or L forms follow the SMILES beside them. Groups on a side chain read outwards from the residue. *: point of attachment. C20 diacid = O=C(O)CCCCCCCCCCCCCCCCCCC(=O)*; C18 diacid = O=C(O)CCCCCCCCCCCCCCCCC(=O)*; γGlu = O=C(O)[C@H](CCC(=O)[*:2])N[*:1]; AEEA = NCCOCCOCC(=O)O

Experiments:
CRF1R receptor = molecular target: T1, CRF1R receptor (Homo sapiens, UniProt P34998); experiment: cAMP activity at anti-target CRF1R, CRF1R-overexpression CHO cell line (Example 9); type: cell-based; details: for EC50: 0% HSA
T1 construct: host or cells: CHO-K1 clone 2
T1 sequence (P34998 24-415): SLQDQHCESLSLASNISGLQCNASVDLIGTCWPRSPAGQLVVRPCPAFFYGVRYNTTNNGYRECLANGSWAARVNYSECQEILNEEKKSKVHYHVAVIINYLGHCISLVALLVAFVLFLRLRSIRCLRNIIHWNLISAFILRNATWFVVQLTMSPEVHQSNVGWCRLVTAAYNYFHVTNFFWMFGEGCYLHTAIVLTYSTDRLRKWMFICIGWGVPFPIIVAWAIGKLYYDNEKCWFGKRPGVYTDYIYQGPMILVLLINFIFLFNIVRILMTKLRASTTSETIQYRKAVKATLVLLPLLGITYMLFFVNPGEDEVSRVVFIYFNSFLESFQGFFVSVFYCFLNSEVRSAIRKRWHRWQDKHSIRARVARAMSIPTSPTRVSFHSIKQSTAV
Summary of the method: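 cAMP accumulation was read by HTRF after 30 min at room temperature of compound treatment. Cells were cryopreserved CHO cells overexpressing CRF1R, plated at 2000/well in IBMX (2 mM)-containing HBSS/HEPES buffer with 0 or 0.1% HSA. Activity was normalized to 1000 nM UCN2 as 100%.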

human CRF2α receptor = molecular target: T2, human CRF2α receptor (Homo sapiens, UniProt Q13324); experiment: cAMP agonism at human CRF2 α receptor in TeloHEAC cells (Example 7); type: cell-based; details: cAMP HTRF, TeloHEAC cells stably expressing human CRF2 α, 0% HSA; read-out: EC50 [nM], 0% HSA
T2 construct: expressed in transfected cells; host or cells: TeloHEAC
T2 sequence (Q13324 1-411): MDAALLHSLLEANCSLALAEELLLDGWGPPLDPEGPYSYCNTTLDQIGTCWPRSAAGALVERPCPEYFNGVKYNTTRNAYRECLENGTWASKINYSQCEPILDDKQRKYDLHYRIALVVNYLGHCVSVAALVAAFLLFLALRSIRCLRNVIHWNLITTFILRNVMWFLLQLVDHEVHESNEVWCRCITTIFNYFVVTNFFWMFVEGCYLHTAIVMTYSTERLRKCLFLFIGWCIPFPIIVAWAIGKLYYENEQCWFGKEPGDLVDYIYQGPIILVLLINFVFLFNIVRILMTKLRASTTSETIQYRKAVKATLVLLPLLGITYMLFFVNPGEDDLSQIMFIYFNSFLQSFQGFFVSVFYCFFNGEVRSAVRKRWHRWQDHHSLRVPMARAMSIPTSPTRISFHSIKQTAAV
Summary of the method: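 Cryopreserved cells are thawed, washed and resuspended in IBMX-containing (2 mM) HEPES-buffered HBSS with or without 0.1% HSA. Compound incubation runs 30 min at room temperature with 2000 cells per well, then cAMP is measured by time-resolved FRET. Potency is expressed as EC50, efficacy relative to urocortin 2 at 1000 nM.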

rat CRF2R α receptor = experiment: cAMP agonism at rat CRF2R α receptor in A7R5 rat aortic smooth muscle cells (Example 8); type: cell-based; details: cAMP HTRF, A7R5 rat aortic smooth muscle cell line, 0% HSA
Summary of the method: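 Thawed cryopreserved A7R5 cells in HBSS/20 mM HEPES (0 or 0.1% HSA) with 2 mM IBMX, 2000 cells/well, were exposed to compound for 30 min at room temperature. cAMP was read by HTRF (665/620 nm ratio) after 1 h with lysis reagents. Activity was normalised to 1000 nM urocortin 2 as 100%, and EC50 was taken as the concentration giving 50% of maximal activation.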

[1] = Solubility in buffer systems by UPLC-UV (Example 13); type: physicochemical
Summary of the method: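 The supernatant was diluted 1:10 and quantified by UPLC-UV peak area against a reference standard curve, correcting for sequence-based extinction coefficients.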

[2] = CRF1R-overexpression CHO cell line
[3] = CRF1R-overexpression CHO cell line, read-out: Emax (%)
[4] = pH 7.4, Solubility in Buffer C [mg/ml]
[5] = pH 4.5, Solubility in Buffer B [mg/ml]

EC50 (CRF1R receptor; [2])	Emax (CRF1R receptor; [3])	EC50 (human CRF2α receptor)	EC50 (rat CRF2R α receptor)	solubility at 1 h [1, 4]	solubility at 1 h [1, 5]	SMILES	Emax (CRF1R receptor; CHO)	solubility at 1 h ([1]; Buffer B: 100 mM acetate buffer, pH 4.5, 2.7 mg/ml m-cresol, target 10 mg/ml, read-out: Solubility in Buffer B)	solubility at 1 h ([1]; Buffer C: 100 mM phosphate buffer, pH 7.4, target 10 mg/ml, read-out: Solubility in Buffer C)
> 1000 nM	13.3%	0.65 nM	2.04 nM	10300 µg/mL (≈ 2000 µM)	–	CC[C@H](C)[C@H](N)C(=O)N[C@H](C(=O)N[C@@H](CC(C)C)C(=O)N[C@@H](CO)C(=O)N[C@@H](CC(C)C)C(=O)N[C@@H](CC(=O)O)C(=O)N[C@H](C(=O)N1CCC[C@H]1C(=O)N[C@H](C(=O)N[C@@H](CCCCN)C(=O)N[C@@H](CC(C)C)C(=O)N[C@@H](CCCCNC(=O)COCCOCCNC(=O)COCCOCCNC(=O)CC[C@H](NC(=O)CCCCCCCCCCCCCCCCC(=O)O)C(=O)O)C(=O)N[C@@H](CCC(N)=O)C(=O)N[C@H](C(=O)N[C@@H](CC(C)C)C(=O)N[C@@H](CC(C)C)C(=O)N[C@@H](CCC(=O)O)C(=O)N[C@@H](CCC(N)=O)C(=O)N[C@@H](CCC(=O)O)C(=O)N[C@@H](CCCNC(=N)N)C(=O)N[C@@H](CCC(N)=O)C(=O)N[C@@H](CCCNC(=N)N)C(=O)N[C@@H](CCCCN)C(=O)N[C@@H](CCC(=O)O)C(=O)N[C@@H](CCCNC(=N)N)C(=O)N[C@@H](CCC(N)=O)C(=O)N[C@@H](CCC(N)=O)C(=O)N[C@@H](C)C(=O)N[C@@H](CCC(=O)O)C(=O)N[C@H](C(=O)N[C@@H](CC(N)=O)C(=O)N[C@@H](C)C(=O)N[C@@H](CCC(N)=O)C(=O)N[C@H](C(=O)N[C@@H](CC(C)C)C(=O)N[C@@H](C)C(=O)N[C@@H](CCC(N)=O)C(=O)N[C@H](C(N)=O)C(C)C)[C@@H](C)CC)[C@@H](C)O)[C@@H](C)CC)[C@@H](C)CC)C(C)C)C(C)C [compound 39] (H-IVLSLDVPIKLK([AEEA-AEEA-γGlu-C18 diacid])QILLEQERQRKERQQAETNAQILAQV-NH2)	–	–	–
> 1000 nM	3.31%	0.38 nM	0.94 nM	> 9500 µg/mL	> 10600 µg/mL	CC[C@H](C)[C@H](NC(=O)[C@H](CCC(N)=O)NC(=O)[C@H](CCCCNC(=O)COCCOCCNC(=O)COCCOCCNC(=O)CC[C@H](NC(=O)CCCCCCCCCCCCCCCCCCC(=O)O)C(=O)O)NC(=O)[C@@H](NC(=O)[C@H](CCCCN)NC(=O)[C@@H](NC(=O)[C@@H]1CCCN1C(=O)[C@@H](NC(=O)[C@H](CC(=O)O)NC(=O)[C@H](CC(C)C)NC(=O)[C@H](CO)NC(=O)[C@H](CC(C)C)NC(=O)[C@@H](NC(=O)[C@@H](N)Cc1ccccc1)[C@@H](C)O)C(C)C)[C@@H](C)O)[C@@H](C)CC)C(=O)N[C@@H](CC(C)C)C(=O)N[C@@H](CC(C)C)C(=O)N[C@@H](CCCCN)C(=O)N[C@@H](CCC(N)=O)C(=O)N[C@@H](CCC(N)=O)C(=O)N[C@@H](CCCCN)C(=O)N[C@@H](CCC(N)=O)C(=O)N[C@@H](CCCCN)C(=O)N[C@@H](CCCCN)C(=O)N[C@@H](CCC(=O)O)C(=O)N[C@@H](CCCNC(=N)N)C(=O)N[C@@H](CCC(N)=O)C(=O)N[C@@H](CCC(N)=O)C(=O)N[C@@H](C)C(=O)N[C@@H](CCC(=O)O)C(=O)N[C@H](C(=O)N[C@@H](CC(N)=O)C(=O)N[C@@H](CCCCN)C(=O)N[C@@H](CCC(N)=O)C(=O)N[C@@H](CC(C)C)C(=O)N[C@@H](CC(C)C)C(=O)N[C@@H](CCC(=O)O)C(=O)N[C@@H](CCCNC(=N)N)C(=O)N[C@H](C(N)=O)C(C)C)[C@@H](C)O [compound 61] (H-FTLSLDVPTKIK([AEEA-AEEA-γGlu-C20 diacid])QILLKQQKQKKERQQAETNKQLLERV-NH2)	–	–	–
> 1000 nM	9.18%	0.57 nM	0.66 nM	7500 µg/mL (≈ 1450 µM)	6800 µg/mL (≈ 1320 µM)	CC[C@H](C)[C@H](N)C(=O)N[C@H](C(=O)N[C@@H](CC(C)C)C(=O)N[C@@H](CO)C(=O)N[C@@H](CC(C)C)C(=O)N[C@@H](CC(=O)O)C(=O)N[C@H](C(=O)N1CCC[C@H]1C(=O)N[C@H](C(=O)N[C@@H](CCCCN)C(=O)N[C@@H](CC(C)C)C(=O)N[C@@H](CCCCNC(=O)COCCOCCNC(=O)COCCOCCNC(=O)CC[C@H](NC(=O)CCCCCCCCCCCCCCCCC(=O)O)C(=O)O)C(=O)N[C@@H](CCC(N)=O)C(=O)N[C@H](C(=O)N[C@@H](CC(C)C)C(=O)N[C@@H](CC(C)C)C(=O)N[C@@H](CCC(=O)O)C(=O)N[C@@H](CCC(N)=O)C(=O)N[C@@H](CCC(=O)O)C(=O)N[C@@H](CCCCN)C(=O)N[C@@H](CCC(N)=O)C(=O)N[C@@H](CCCCN)C(=O)N[C@@H](CCCCN)C(=O)N[C@@H](CCC(N)=O)C(=O)N[C@@H](CCCNC(=N)N)C(=O)N[C@@H](CCC(=O)O)C(=O)N[C@@H](CCC(N)=O)C(=O)N[C@@H](C)C(=O)N[C@@H](CCC(=O)O)C(=O)N[C@H](C(=O)N[C@@H](CC(N)=O)C(=O)N[C@@H](CCCCN)C(=O)N[C@@H](CCC(N)=O)C(=O)N[C@H](C(=O)N[C@@H](CC(C)C)C(=O)N[C@@H](C)C(=O)N[C@@H](CCC(N)=O)C(=O)N[C@H](C(N)=O)C(C)C)[C@@H](C)CC)[C@@H](C)O)[C@@H](C)CC)[C@@H](C)CC)C(C)C)C(C)C [compound 67] (H-IVLSLDVPIKLK([AEEA-AEEA-γGlu-C18 diacid])QILLEQEKQKKQREQAETNKQILAQV-NH2; N-terminus assumed)	–	–	–

SMILES	EC50 (CRF1R receptor; [2])	Emax (CRF1R receptor; [3])	EC50 (human CRF2α receptor)	EC50 (rat CRF2R α receptor)	solubility at 1 h [1, 4]	solubility at 1 h [1, 5]	Emax (CRF1R receptor; CHO)	solubility at 1 h ([1]; Buffer B: 100 mM acetate buffer, pH 4.5, 2.7 mg/ml m-cresol, target 10 mg/ml, read-out: Solubility in Buffer B)	solubility at 1 h ([1]; Buffer C: 100 mM phosphate buffer, pH 7.4, target 10 mg/ml, read-out: Solubility in Buffer C)
CC[C@H](C)[C@H](NC(=O)[C@H](CCC(N)=O)NC(=O)[C@H](CCC(=O)O)NC(=O)[C@H](CC(C)C)NC(=O)[C@H](CC(C)C)NC(=O)[C@H](CCC(N)=O)NC(=O)[C@H](CCCCN)NC(=O)[C@H](CC(N)=O)NC(=O)[C@H](CCCCN)NC(=O)[C@H](CCC(=O)O)NC(=O)[C@H](C)NC(=O)[C@H](CCC(N)=O)NC(=O)[C@H](CCC(N)=O)NC(=O)[C@H](CCCNC(=N)N)NC(=O)[C@H](CCC(=O)O)NC(=O)[C@H](CCCCN)NC(=O)[C@H](CCCCN)NC(=O)[C@H](CCC(N)=O)NC(=O)[C@H](CCCCN)NC(=O)[C@H](CCC(N)=O)NC(=O)[C@H](CCC(N)=O)NC(=O)[C@H](CCCCN)NC(=O)[C@H](Cc1ccccc1)NC(=O)[C@H](CC(C)C)NC(=O)[C@@H](NC(=O)[C@H](CCC(N)=O)NC(=O)[C@H](CCCCNC(=O)COCCOCCNC(=O)COCCOCCNC(=O)CC[C@H](NC(=O)CCCCCCCCCCCCCCCCCCC(=O)O)C(=O)O)NC(=O)[C@@H](NC(=O)[C@H](CCCCN)NC(=O)[C@@H](NC(=O)[C@@H]1CCCN1C(=O)[C@@H](NC(=O)[C@H](CC(=O)O)NC(=O)[C@H](CC(C)C)NC(=O)[C@H](CO)NC(=O)[C@H](CC(C)C)NC(=O)[C@@H](NC(=O)[C@@H](N)Cc1ccccc1)[C@@H](C)O)C(C)C)[C@@H](C)O)[C@@H](C)CC)[C@@H](C)CC)C(N)=O [compound 58] (H-FTLSLDVPTKIK([AEEA-AEEA-γGlu-C20 diacid])QILFKQQKQKKERQQAEKNKQLLEQI-NH2; N-terminus assumed)	–	–	0.28 nM	0.72 nM	–	–	9.12%	> 9500 µg/mL	> 9400 µg/mL
